In paper PMC10065799, “High-throughput profiling of sequence recognition by tyrosine kinases and SH2 domains using bacterial peptide display” (eLife, 2023):
One block for each molecule: values may come before it.

How the values were obtained:
AncSZ kinase domain = assay: pTyr-Var library bacterial peptide display kinase screen (enrichment scores); type: biochemical;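 on AncSZ hit?: Hit requires p below 0.05 and at least twofold variant vs reference change plus filters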
Fyn kinase domain = assay: as above; type: biochemical, human;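 on Fyn hit?: Hit requires p below 0.05 and at least twofold variant vs reference change plus filters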
FGFR1 kinase domain = assay: as above; type: biochemical, human
EPHB1 kinase domain = assay: as above; type: biochemical, human
c-Src SH2 domain = c-Src SH2 domain (Homo sapiens, UniProt P12931); assay: pTyr-Var library SH2 domain screen with SH2-dynabeads (enrichment scores); conditions: sheet c-Src
Fer kinase domain = assay: pTyr-Var library bacterial peptide display kinase screen (enrichment scores); type: biochemical, mouse; conditions: for Screen: sheet "Fer";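 on Fer hit?: Hit requires p below 0.05 and at least twofold variant vs reference change plus filters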;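 on screen: log2 fold change in enrichment of variant over reference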
FGFR3 kinase domain = assay: as above; type: biochemical, human
Fes = assay: as above; type: biochemical
Grb2 SH2 domain = assay: pTyr-Var library SH2 domain screen with SH2-dynabeads (enrichment scores)
MERTK kinase domain = assay: pTyr-Var library bacterial peptide display kinase screen (enrichment scores); type: biochemical, human
c-Src kinase domain [1] = target: T1, c-Src kinase domain (Homo sapiens, UniProt P12931); assay: as above; type: biochemical; conditions: for Screen: sheet "Src"
Jak2 = assay: as above; type: biochemical, human
SHP2 C-SH2 domain = assay: pTyr-Var library SH2 domain screen with SH2-dynabeads (enrichment scores)
Hck kinase domain = assay: pTyr-Var library bacterial peptide display kinase screen (enrichment scores); type: biochemical, human
EPHB2 kinase domain = assay: as above; type: biochemical, human; conditions: for Screen: sheet EPHB2, effect of variant peptide relative to its reference peptide in the pTyr-Var library screen (enrichment scores);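 on screen: log2 fold change in enrichment of variant over reference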
c-Abl kinase domain [2] = target: T2, c-Abl kinase domain (Mus musculus, UniProt P00520); assay: as above; type: biochemical
T2 sequence (P00520 242-493 limits assumed): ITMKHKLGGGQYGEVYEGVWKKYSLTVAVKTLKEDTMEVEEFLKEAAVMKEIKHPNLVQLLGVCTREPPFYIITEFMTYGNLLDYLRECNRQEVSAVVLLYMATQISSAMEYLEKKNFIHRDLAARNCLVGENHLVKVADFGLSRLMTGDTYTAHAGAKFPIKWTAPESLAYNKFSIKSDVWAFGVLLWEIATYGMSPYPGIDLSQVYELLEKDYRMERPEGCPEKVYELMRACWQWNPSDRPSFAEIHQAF

c-Abl kinase domain [3] = target: T2, c-Abl kinase domain; assay: RP-HPLC assay to measure peptide phosphorylation kinetics; type: biochemical; conditions: purified peptide substrate
c-Src kinase domain [4] = target: T1, c-Src kinase domain; assay: as above; type: biochemical; conditions: purified peptide substrate
[5] = target: mouse c-Abl kinase domain (residues 232-502) (mouse) (UniProt P00520)
Sequence of mouse c-Abl kinase domain (residues 232-502) (mouse) (P00520 232-502): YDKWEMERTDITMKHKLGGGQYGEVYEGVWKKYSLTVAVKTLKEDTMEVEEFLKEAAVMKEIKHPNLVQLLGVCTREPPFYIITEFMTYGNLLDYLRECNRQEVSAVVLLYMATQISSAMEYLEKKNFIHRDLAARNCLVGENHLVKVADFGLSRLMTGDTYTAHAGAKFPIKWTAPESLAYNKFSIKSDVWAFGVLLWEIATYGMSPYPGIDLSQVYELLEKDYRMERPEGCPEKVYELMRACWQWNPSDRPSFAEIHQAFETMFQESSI

[6] = pTyr-Var library, enrichment score, replicate 1
[7] = pTyr-Var library, enrichment score, replicate 3
[8] = pTyr-Var library, enrichment score, replicate 4
[9] = variant versus reference peptide
[10] = variant versus reference peptide, significant hit TRUE/FALSE
[11] = mean of log2 of enrichment over R1-R4
[12] = mean of log2(variant) minus mean of log2(reference)
[13] = mean of log2 enrichment of variant peptide, n = 5
[14] = mean of log2 enrichment of variant peptide, n = 4
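Wherever c-Src hit? is given: Hit requires p below 0.05 and at least twofold variant vs reference change plus filters.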

Molecule: ATGLIYIGSHD [AASDH_Y870_T865A]
- AncSZ mean of log2(enrichment) (AncSZ kinase domain; mean of log2 of enrichment over R1-R5): -0.2868
- AncSZ enrich. R1 (AncSZ kinase domain; [6]): 0.8707
- AncSZ enrich. R3 (AncSZ kinase domain; [7]): 0.8843
- AncSZ enrich. R4 (AncSZ kinase domain; [8]): 0.9628
- AncSZ enrich. R5 (AncSZ kinase domain; pTyr-Var library, enrichment score, replicate 5): 0.6734
- AncSZ difference (mean log2 variant - mean log2 reference) (AncSZ kinase domain; [9]): 0.1813
- AncSZ hit? (AncSZ kinase domain; [10]): FALSE
- Fyn mean of log2(enrichment) (Fyn kinase domain; [11]): -1.279
- Fyn enrich. R1 (Fyn kinase domain; [6]): 0.5717
- Fyn enrich. R3 (Fyn kinase domain; [7]): 0.2668
- Fyn enrich. R4 (Fyn kinase domain; [8]): 0.4414
- Fyn difference (mean log2 variant - mean log2 reference) (Fyn kinase domain; [9]): 0.2007
- Fyn hit? (Fyn kinase domain; [10]): FALSE
- difference (FGFR1 kinase domain; [12]): -0.06079
- mean of log2(variant) (FGFR1 kinase domain; [13]): -1.25
- difference (EPHB1 kinase domain; [12]): 0.11
- mean of log2(variant) (EPHB1 kinase domain; [14]): -0.4876
- difference (c-Src SH2 domain; [12]): -0.1239
- mean of log2(variant) (c-Src SH2 domain; mean of log2 enrichment of variant peptide, R1-R3): -0.9155
- Fer mean of log2(enrichment) (Fer kinase domain; [11]): -1.02
- Fer enrich. R1 (Fer kinase domain; [6]): 0.4993
- Fer enrich. R3 (Fer kinase domain; [7]): 0.7968
- Fer enrich. R4 (Fer kinase domain; [8]): 0.4647
- Fer difference (mean log2 variant - mean log2 reference) (Fer kinase domain; [9]): 0.2779
- Fer hit? (Fer kinase domain; [10]): FALSE
- difference (FGFR3 kinase domain; [12]): 0.03027
- mean of log2(variant) (FGFR3 kinase domain; [13]): -0.6189
- Fes mean of log2(enrichment) (Fes; mean of log2 of enrichment over R1-R6): 0.1901
- Fes enrichment (mean) (Fes; pTyr-Var library, enrichment score, mean of replicates R1-R6): 1.145
- Fes difference (mean log2 variant - mean log2 reference) (Fes; [9]): 0.6008
- difference (Grb2 SH2 domain; Grb2 SH2, mean of log2(variant) minus mean of log2(reference)): -0.4428
- mean of log2(variant) (Grb2 SH2 domain; Grb2 SH2, mean of log2 enrichment of variant, R1-R3): -0.4021
- hit? (Grb2 SH2 domain; Grb2 SH2, variant versus reference significant hit call): FALSE
- difference (MERTK kinase domain; [12]): 0.7784
- mean of log2(variant) (MERTK kinase domain; [14]): -0.9082
- c-Src mean of log2(enrichment) (c-Src kinase domain [1]; [11]): -1.071
- c-Src enrich. R1 (c-Src kinase domain [1]; [6]): 0.5345
- c-Src enrich. R3 (c-Src kinase domain [1]; [7]): 0.3128
- c-Src enrich. R4 (c-Src kinase domain [1]; [8]): 0.6339
- c-Src difference (mean log2 variant - mean log2 reference) (c-Src kinase domain [1]; [9]): 0.2235
- c-Src hit? (c-Src kinase domain [1]; [10]): FALSE
- Jak2 mean of log2(enrichment) (Jak2; mean of log2 of enrichment over R1-R3): -0.3116
- Jak2 enrich. R1 (Jak2; [6]): 0.8629
- Jak2 enrich. R3 (Jak2; [7]): 0.7054
- Jak2 difference (mean log2 variant - mean log2 reference) (Jak2; [9]): 0.1735
- Jak2 hit? (Jak2; [10]): FALSE
- difference (SHP2 C-SH2 domain; SHP2-C SH2, mean of log2(variant) minus mean of log2(reference)): -0.2085
- mean of log2(variant) (SHP2 C-SH2 domain; SHP2-C SH2, mean of log2 enrichment of variant, R1-R3): -0.9356
- hit? (SHP2 C-SH2 domain; SHP2-C SH2, variant versus reference significant hit call): FALSE
- Hck mean of log2(enrichment) (Hck kinase domain; mean of log2(variant) / mean of log2(reference), R1-R4): 0.4694
- Hck enrich. R1 (Hck kinase domain; [6]): 0.8875
- Hck enrich. R3 (Hck kinase domain; [7]): 0.3766
- Hck enrich. R4 (Hck kinase domain; [8]): 0.194
- Hck difference (variant - reference) (Hck kinase domain; [9]): 0.009668
- Hck hit? (Hck kinase domain; [10]): FALSE
- difference (EPHB2 kinase domain; [12]): 0.3789
- mean of log2(variant) (EPHB2 kinase domain; [14]): -0.4994
- c-Abl mean of log2(enrichment) (c-Abl kinase domain [2]; [11]): -0.2804
- c-Abl enrich. R1 (c-Abl kinase domain [2]; [6]): 0.635
- c-Abl enrich. R3 (c-Abl kinase domain [2]; [7]): 0.7155
- c-Abl enrich. R4 (c-Abl kinase domain [2]; [8]): 1.499
- c-Abl hit? (c-Abl kinase domain [2]; [10]): FALSE

Molecule: Ac-LFSEYASVQV-NH2 [SIRPA_Y496_P491L, pTyr-Var library variant peptide, non-canonical c-Abl substrate]
- Phosphorylation Rate (c-Abl kinase domain [3]): 0.182 s⁻¹
- Screen (variant relative to reference peptide, measured in the pTyr-Var library screen) (EPHB1 kinase domain; sheet "EPHB1", variant seq vs reference seq, bacterial peptide display enrichment): 0.2454
- Screen (Fer kinase domain; variant peptide relative to its reference peptide, pTyr-Var library screen enrichment): 0.5649
- Screen (c-Src kinase domain [1]; variant peptide versus its reference peptide in the pTyr-Var library screen): -0.1318
- Screen (EPHB2 kinase domain): 0.1232

Molecule: Ac-SVEELYAIPPD-NH2 [PEAK1_Y797, pTyr-Var library phosphosite peptide]
- Phosphorylation Rate (c-Abl kinase domain [3]): 0.407 s⁻¹

Molecule: Ac-VASSLYDIFAR-NH2 [GLB1_Y294_L297F, pTyr-Var library variant phosphosite peptide]
- Phosphorylation Rate (c-Src kinase domain [4]): 1.477 s⁻¹
- Screen (Fer kinase domain; value of the variant peptide against its reference peptide in the pTyr-Var library screen with Fer): 0.6922
- Screen (c-Src kinase domain [1]; effect of the variant peptide relative to its reference peptide in the pTyr-Var library screen): 1.173
- Screen (EPHB2 kinase domain): 0.8382

- KM (μM) of phosphorylation, Michaelis-Menten analysis, ADP-Quest assay [5]: 35 µM
Molecule: Ac-GAPEVIYATPGAKKKG-NH2 [AblTide (2014) peptide Ac-…-NH2]
